From patent US20240368668A1, “SUBSTRATES AND BIOMARKERS OF ADAMTS7” (The Broad Institute, Inc., priority 2021, published 2024) come the findings set out here.

Square brackets hold non-standard residues; d marks the D form. Ends that are not written are not given here. Met(O) = CS(=O)CC[C@H](N)C(=O)O

In the first experiment the test system is mouse ADAMTS7. The experiment in a line: TMT10 TAILS N-terminomics, SMC2 experiment (process replicates, trypsin/AspN digest). It is filed as cell-based. The conditions noted are these: SMC2_TAILS HC; log fold change of N-terminal peptide, Ad-mADAMTS7 WT over EQ. The method, boiled down:
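Full-length mouse ADAMTS7 (WT or E373Q mutant, C-terminal 3xFLAG) or luciferase was transduced via adenovirus, 50 MOI, into HCA-SMC (SMC1, SMC2) or HUVEC. SMC1: pooled media, technical triplicates 400 ug; SMC2: process triplicates 300 ug; HUVEC: process triplicates 200 ug, bFGF2 10 ng/ml.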
Consider “LOXL1_218 (AVASAGVIYPYQPR; listed as Homo sapiens)”, for which the logFC.mWT.over.mEQ was 1.83.
The same measure, in the same setting: as for “LOXL2_45 (HQPQAPANVAKIQLR; listed as Homo sapiens)”, the figure is 2.51; as for “LTBP2_79 (VAGLQPVER; listed as Homo sapiens)”, 1.62; as for “LTBP2_250 (SAAGEGTLAR; listed as Homo sapiens)”, 2.70.
The same measure, in the same setting: as for “LTBP2_290 (QHVGLSR; listed as Homo sapiens)”, the figure is 3.05; as for “LTBP2_502 (LVENSVETRPPPWLPASPGHSLW; listed as Homo sapiens)”, 2.85.
“LTBP3_103 (LTGSGFR; listed as Homo sapiens)” yielded a logFC.mWT.over.mEQ of 5.72.
Still for that read-out and setting: the figure for “LTBP3_208 (FLVPLGPGQISA; listed as Homo sapiens)” is 1.53; for “MAP4_815 (AVASTGPSSR; listed as Homo sapiens)” it is 1.70; for “MAP4_816 (VASTGPSSR; listed as Homo sapiens)” it is 2.51.
Substance “MMP1_100 (FVLTEGNPR; listed as Homo sapiens)” had a logFC.mWT.over.mEQ of 2.39.
Same read-out and setting: as for “MMP1_185 (FQPGPGIGG; listed as Homo sapiens)”, the figure is 1.46.
On the same count and under the same terms, as for “NBEA_1892 (LEKVAPLLR; listed as Homo sapiens)”, the figure is 2.12; as for “NID1_360 (FHQQHPQVI; listed as Homo sapiens)”, 2.69.
The same measure, in the same setting: as for “NID2_291 (HSSVPLGR; listed as Homo sapiens)”, the figure is 3.16.
With “NID2_951 (YAYPGAR; listed as Homo sapiens)”, the logFC.mWT.over.mEQ is listed as 2.80.
On the same count and under the same terms, the figure for “PAK4_141 (HSEAGGGSG; listed as Homo sapiens)” is 1.78.
Still for that read-out and setting: the figure for “PLIN3_75 (VSGAQPILSKL; listed as Homo sapiens)” is 2.25.
As for “POSTN_727 (IITGPEIKYTR; listed as Homo sapiens)”, the logFC.mWT.over.mEQ is 2.60.
Same read-out and setting: as for “PPP1R18_295 (LSETLTR; listed as Homo sapiens)”, the figure is 2.32; as for “PTPRF_1859 (MRYEGVVDMFQTVKTLR; listed as Homo sapiens)”, 2.59.
Same read-out and setting: the figure for “QSOX1_210 (HKGVAVR; listed as Homo sapiens)” is 1.69.
Same read-out and setting: as for “SHC2_267 (VAKDPINQRACHIL; listed as Homo sapiens)”, the figure is 1.85; as for “SPOCK1_27 (LAGGAGPNHGNFL; listed as Homo sapiens)”, 2.69.
Consider “SRGN_59 (LLPGESNKIPR; listed as Homo sapiens)”, for which the logFC.mWT.over.mEQ was 3.66.
Consider “TNPO2_744 (VQ[Met(O)]VLNNLVEII[code n]RP[code n]TPKTLLE; listed as Homo sapiens)”, for which the logFC.mWT.over.mEQ was determined as 4.02.
On the same count and under the same terms, the figure for “TNS1_236 (QEGLAGYQR; listed as Homo sapiens)” is 2.08; for “TRGC2_86 (HRCIVRHENNK; listed as Homo sapiens)” it is 2.93.
Consider “TTN_5975 (VKEPPVEFTKPL; listed as Homo sapiens)”, for which the logFC.mWT.over.mEQ is 3.34.
On the same count and under the same terms, as for “VAT1_42 (AASPPLLR; listed as Homo sapiens)”, the figure is 2.95; as for “VIM_314 (QESTEYR; listed as Homo sapiens)”, 3.28; as for “VIM_333 (LKGTNESLER; listed as Homo sapiens)”, 3.84.

Still in this experiment, the particulars now being: SMC2_TAILS HC; log fold change, mWT over mEQ.
For “COL1A2_80 (QYDGKGVGLGPGPMGLMGPR; listed as Homo sapiens)”, the logFC.mWT.over.mEQ came out at 1.15.
“COL1A2_270 (VGNAGPAGPAGPR; listed as Homo sapiens)” displayed a logFC.mWT.over.mEQ of 3.47.
The same measure, in the same setting: as for “COL1A2_305 (LTGAKGAAGLPGVAGAPGLPGPR; listed as Homo sapiens)”, the figure is 1.92.
“COL1A2_630 (VGTAGPSGPSGLPGER; listed as Homo sapiens)” gave a logFC.mWT.over.mEQ of 2.33.
Still for that read-out and setting: the figure for “COL1A2_866 (LLGAPGILGLPGSR; listed as Homo sapiens)” is 3.22; for “COL1A2_960 (AGAPGPHGPVGPAGKHGNR; listed as Homo sapiens)” it is 2.87.
Take “COL1A2_1028 (LQGLPGIAGHHGDQGAPGSVGPAGPR; listed as Homo sapiens)”: the logFC.mWT.over.mEQ is listed as 1.98.
Take “COL4A2_71 (YNGPPGLQGFPGLQGR; listed as Homo sapiens)”: the logFC.mWT.over.mEQ is on record as 1.70.
Still for that read-out and setting: as for “COL18A1_1505 (LQPPVVQLHDSNPYPR; listed as Homo sapiens)”, the figure is 1.47.

The same experiment, now with this note: log fold change, ADAMTS7 WT over EQ.
Take “SERBP1_56 (QAAAQTNSNAAGKQLR; listed as Homo sapiens)”: the logFC.mWT.over.mEQ is reported as 4.06.
Same read-out and setting: as for “SRGN_59 (LLPGESNKIPR; listed as Homo sapiens)”, the figure is 4.33; as for “THBS2_290 (LSENLKR; listed as Homo sapiens)”, 4.05.
The same measure, in the same setting: as for “VIM_314 (QESTEYR; listed as Homo sapiens)”, the figure is 2.60.
Still for that read-out and setting: as for “VIM_333 (LKGTNESLER; listed as Homo sapiens)”, the figure is 4.39.
